Experimental data taken from PMC8708875 (Pharmaceutics, 2021).
Read-outs that look alike come from different tables or passages of the source. Square brackets hold non-standard residues; d marks the D form. Ends that are not written are not given here. Peptide text beside a SMILES is read from it.

Experiments:
in vitro [1] = assay type: in vitro ADME, mouse; conditions: other tissue homogenate; mouse liver crude extract 30 µg; peptide 50 µM; 20 min; 250 µL TBS (0.025 M Tris-HCl, 0.125 M NaCl); RP-HPLC C18, UV 214 nm; average of three independent determinations; read-out: % of peptide degraded, Liver Extract (30 µg)
Description: (§1) Peptide hydrolyses were analyzed by reverse phase liquid chromatography (HPLC) using a C18 µBond-pak column (4.6 × 250 mm; Millipore Corp.) with a linear gradient of 5–65% acetonitrile in 0.1% TFA for 20 min at a flow rate of 1 mL/min, and absorbance monitored at a wavelength of 214 nm, as previously described. Cleaved peptide bonds were identified by mass spectrometry sequencing after isolating the cleavage fragments manually after HPLC, as previously described (data not shown). Control enzyme assays were conducted using bradykinin ([…]; 50 µM) as a standard substrate.

in vitro [2] = assay type: in vitro ADME; conditions: other tissue homogenate, mouse kidney crude extract 3 µg, peptide 50 µM, 250 µL TBS (0.025 M Tris-HCl, 0.125 M NaCl), RP-HPLC C18, UV 214 nm, average of three independent determinations, read-out: % of peptide degraded, Kidney Extract (3 µg)
Description: as §1
(IGF1) Rev: AGAGGTGTGAAGAC-
(GLUT4) Rev: CAGCTCCTATGGTGGCG-
Glyceraldehyde 3-phosphate de- TGCCAGCCTCGTCC 75 BC_085275 hydrogenase (GAPDH) Rev: CAGGCGCCCAATAC-
Figure S1. Typical experiments to evaluate the enzymatic stability of Ric4 and derivatives on kidney tissue extracts. In order to determine if the peptides investigated herein were substrates of tissue peptidases, 50 μM of each peptide was individually incubated for 20 min in the presence of increas-ing crude kidney tissue extracts (0 µg, 3 µg or 30 µg, as indicated), in a final volume of 250 μl of 0,025 M Tris-HCl, containing 0.125 M NaCl (TBS). Peptide hydrolyses were analyzed by reverse phase liquid chromatography (HPLC) using a C18 µBond-pak column (4.6 x 250 mm; Millipore Corp.) with a linear gradient of 5-65% acetonitrile in 0.1 % TFA for 20 min at a flow rate of 1 mL/min, (1 picture or pasted object on this page, not shown here)

THOP1 [3] = test: THOP1 (0.1 ng), homogeneous recombinant enzyme
neurolysin (Nln) = test: Nln (0.1 ng), homogeneous recombinant enzyme
C57BL/6N (WT) mice = assay type: in vivo, mouse
Description: In vivo experiments were conducted with male C57BL/6N (WT) mice 12–16 weeks-old (University of São Paulo Medical School Animal Facility, SP, Brazil). Mice were maintained in individual ventilated cages (Amresco, SP, Brazil), under standardized conditions with an artificial 12 h dark–light cycle, with free access to standard chow (Nuvital Nutrientes S.A., Colombo, PR, Brazil) and drinking water ad libitum. The number of animals used was the minimum necessary to obtain statistically significant results and they were maintained and used in accordance with the guidelines of the National Council for Control of Animal Experiments (CONCEA), following international norms of animal care and maintenance. Thus, we hereby state that all experimental protocols were previously approved by University of São Paulo Ethic committee councils from Biomedical Science Institute (approval number for mice experimentation ICB/USP 22/2017).
WT mice were fasted for 12 h and blood samples were taken before and at 15, 30, 60, 90, and 120 min after the intraperitoneal (ip) injection of 2 g/kg glucose. Glycemia was measured using a glucometer (Accu-Check Performa, ROCHE, São Paulo, Brazil). Peptides were evaluated to affect glucose uptake either after ip or oral (by gavage) administration. After 20 min glucose was administrated (blood glucose levels reached 400 mg/dL), animals received ip or oral administration of either saline, insulin (0.75 IU/kg), or peptide (Ric2 or Ric4; 600 µg/kg). In addition, a group of animals received oral administration of either water or Ric2 or Ric4 (600 µg/kg). Glycemia was measured as indicated following vehicle, insulin, or peptide administration.

[4] = tested on: differentiated C2C12 cells; test: Glucose uptake in C2C12 myotubes; assay type: cell-based, mouse; conditions: peptides 100 µM, insulin 100 nM; 30 min, 37 °C; 3H-glucose (1 µCi/mL) or 2-NBDG (80 µM)
[5] = crude tissue extract (kidney, 3 µg); conditions: WT mice, up to 20 min
[6] = crude tissue extract (liver, 30 µg); conditions: WT mice, up to 20 min
Nln = assay type: in vitro ADME
Description: as §1

THOP1 [7] = target: THOP1 (Rattus norvegicus, UniProt P24155); assay type: in vitro ADME
Chain of THOP1 (Rattus norvegicus, UniProt P24155) (P24155 whole entry): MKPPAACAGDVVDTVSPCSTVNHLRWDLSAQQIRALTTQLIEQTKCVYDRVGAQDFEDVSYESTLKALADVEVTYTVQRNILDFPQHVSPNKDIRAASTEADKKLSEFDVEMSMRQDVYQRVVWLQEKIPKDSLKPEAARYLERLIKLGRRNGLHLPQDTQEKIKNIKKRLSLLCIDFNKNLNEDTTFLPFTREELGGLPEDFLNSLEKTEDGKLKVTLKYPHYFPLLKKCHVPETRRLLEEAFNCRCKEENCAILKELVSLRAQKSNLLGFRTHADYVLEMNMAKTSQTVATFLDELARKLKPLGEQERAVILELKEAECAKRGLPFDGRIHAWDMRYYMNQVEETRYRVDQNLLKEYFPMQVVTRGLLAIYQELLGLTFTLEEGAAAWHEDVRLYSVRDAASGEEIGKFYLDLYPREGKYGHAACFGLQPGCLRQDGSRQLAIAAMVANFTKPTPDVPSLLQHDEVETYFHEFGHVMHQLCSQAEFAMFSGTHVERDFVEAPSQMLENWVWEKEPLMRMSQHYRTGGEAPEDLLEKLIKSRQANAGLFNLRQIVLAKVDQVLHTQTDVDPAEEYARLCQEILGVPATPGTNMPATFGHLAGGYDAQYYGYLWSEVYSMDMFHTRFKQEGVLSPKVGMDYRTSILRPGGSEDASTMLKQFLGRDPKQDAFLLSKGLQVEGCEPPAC
Description: as §1

With `CC(=O)N[C@@H](CC(C)C)C(=O)N[C@@H](C)C(=O)N[C@@H](CO)C(=O)N[C@H](C(=O)N[C@@H](CO)C(=O)N[C@H](C(=O)N[C@H](C(=O)N[C@H](CC(C)C)C(=O)N[C@H](C(=O)N[C@@H](CO)C(=O)N[C@@H](CCCCN)C(=O)N[C@@H](Cc1ccc(O)cc1)C(=O)N[C@@H](CCCNC(=N)N)C(N)=O)[C@@H](C)O)C(C)C)[C@@H](C)O)C(C)C` [RIC4-16] (Ac-LASVSTV[dL]TSKYR-NH2) the metabolised at 20 min (in vitro [1]) was 26% and the metabolised at 20 min (in vitro [2]) was 12.5%.
In the case of Ac-LASVSTVLTSKYR-NH2, the not cleaved (THOP1 [3]) is reported as 4.55 % of peptide degraded and the not cleaved (neurolysin (Nln)) is reported as 1.18 % of peptide degraded.
Ac-LASVSTVLTSKYR-NH2 [RIC4-2] gave a metabolised at 20 min (in vitro [1]) of 70.2% and a metabolised at 20 min (in vitro [2]) of 60%.
In the case of “Ac-LASVSTVLTSKYR-NH2 [Ric4-2, Ric4 derived peptide]”, the “blood glucose levels in GTT, oral administration” value (C57BL/6N (WT) mice; WT mice fasted 12 h, glucose 2 g/kg ip at time zero, peptide 600 µg/kg orally by gavage) is reported as “ability to reduce blood glucose levels”.
With “Ac-LASVSTV[dL]TSKYR-NH2 [Ric4-16, Ric4 derived peptide]” the oral bioavailability (C57BL/6N (WT) mice; mouse, in vivo, po) was “no oral bioavailability” and the “glucose uptake in differentiated C2C12 cells” value [4] was “efficiently induced glucose uptake”.
In the case of LASVSTVLTSKYR, the cleaved bond [5] is reported as “Leu8-Thr9, first_seen”, the cleaved bond [6] is reported as “Leu8-Thr9, first_seen” and the not cleaved (THOP1 [3]) is reported as 2.22 % of peptide degraded. The not cleaved (neurolysin (Nln)) was 4.69 % of peptide degraded.
For LASVSTVLTSKYR [RIC4], the metabolised at 20 min (in vitro [1]) was 62.4% and the metabolised at 20 min (in vitro [2]) was 22.6%.
In the case of RPPGFSPFR [Bradykinin], the “% of peptide degraded, Nln” value (Nln) is reported as 14.51% and the “% of peptide degraded, THOP1” value (THOP1 [7]) is reported as 11.93%.
